Like-named read-outs stand apart in the source and are kept apart here.
How the values were obtained:
ovine COX-1 = target: T1, ovine COX-1 (Ovis aries, UniProt P05979); test: COX-1 activity assay using purified enzyme; assay type: biochemical
T1 construct: purchased Cayman Chemicals (Ann Arbor, Mich.)
T1 sequence (P05979 25-600): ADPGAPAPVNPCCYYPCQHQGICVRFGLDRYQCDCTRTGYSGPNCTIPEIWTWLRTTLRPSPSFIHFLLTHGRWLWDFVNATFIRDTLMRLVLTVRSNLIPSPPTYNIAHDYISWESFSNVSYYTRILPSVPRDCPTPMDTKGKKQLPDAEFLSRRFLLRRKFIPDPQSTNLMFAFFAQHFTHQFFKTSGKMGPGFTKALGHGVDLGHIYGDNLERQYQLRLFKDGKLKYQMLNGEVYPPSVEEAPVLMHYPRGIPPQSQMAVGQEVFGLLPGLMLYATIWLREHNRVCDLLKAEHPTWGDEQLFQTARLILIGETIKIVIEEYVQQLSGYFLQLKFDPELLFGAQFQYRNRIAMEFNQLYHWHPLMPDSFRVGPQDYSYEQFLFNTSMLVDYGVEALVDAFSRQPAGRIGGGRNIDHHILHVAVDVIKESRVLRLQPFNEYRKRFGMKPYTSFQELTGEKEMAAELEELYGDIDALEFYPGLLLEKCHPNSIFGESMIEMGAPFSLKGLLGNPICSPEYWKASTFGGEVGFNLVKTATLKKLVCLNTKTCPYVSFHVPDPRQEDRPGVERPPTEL
Procedure: (§1) COX-1 and COX -2 activity assay using purified enzymes—The enzymatic reactions were performed in 0.1M Tris (pH 8.0), in the presence of 5 mM EDTA, 2 mM phenol, and 1 μM heme. […] Enzymatic reactions were initiated by addition of AA at a final concentration of 5 μM for 2 min. The reaction was stopped by addition of 0.1 M HCl. Stannous chloride in 0.1 M HCl was then added to reduce PGG2 and PGH2 to PGF2a. After addition of 0.5 vol of […] NaCl, prostaglandins formed in the reaction were extracted using 2.5 vol of ethyl acetate and the organic layer was completely dried under N2. PGF2a, and PGE2 were quantified using ELISA assays from Cayman Chemicals.

[1] = after γ-T supplementation; cited from earlier work
COX-2 [2] = target: T2, COX-2 (Homo sapiens, UniProt P35354); test: COX-2 activity assay using purified enzyme; assay type: biochemical; design: purchased Cayman Chemicals (Ann Arbor, Mich.); IC50 in the enzyme assay: unit not given beside the values
T2 sequence (P35354 18-604): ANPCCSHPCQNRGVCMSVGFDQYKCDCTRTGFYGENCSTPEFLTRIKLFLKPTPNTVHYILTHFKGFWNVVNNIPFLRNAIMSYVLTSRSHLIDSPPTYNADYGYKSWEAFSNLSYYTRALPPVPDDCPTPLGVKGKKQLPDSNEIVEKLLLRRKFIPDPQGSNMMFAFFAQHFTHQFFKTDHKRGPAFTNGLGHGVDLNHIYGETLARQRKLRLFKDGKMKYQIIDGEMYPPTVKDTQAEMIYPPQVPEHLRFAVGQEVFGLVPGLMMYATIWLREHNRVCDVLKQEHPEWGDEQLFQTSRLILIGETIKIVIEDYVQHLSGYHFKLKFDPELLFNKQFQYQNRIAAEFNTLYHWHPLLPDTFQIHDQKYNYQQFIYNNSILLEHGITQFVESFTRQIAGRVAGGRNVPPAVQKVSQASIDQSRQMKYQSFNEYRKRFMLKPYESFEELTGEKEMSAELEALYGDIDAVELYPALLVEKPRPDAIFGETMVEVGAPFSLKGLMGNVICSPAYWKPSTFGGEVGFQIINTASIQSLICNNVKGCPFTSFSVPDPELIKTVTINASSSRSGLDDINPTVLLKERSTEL
Procedure: as §1

5-LOX = target: T3, 5-LOX (Homo sapiens, UniProt P09917); test: 5-LOX activity in HL-60 cells differentiated neutrophils; assay type: cell-based; design: endogenous in cells; host or cells: HL-60 cells differentiated to neutrophils
T3 sequence (P09917 1-674): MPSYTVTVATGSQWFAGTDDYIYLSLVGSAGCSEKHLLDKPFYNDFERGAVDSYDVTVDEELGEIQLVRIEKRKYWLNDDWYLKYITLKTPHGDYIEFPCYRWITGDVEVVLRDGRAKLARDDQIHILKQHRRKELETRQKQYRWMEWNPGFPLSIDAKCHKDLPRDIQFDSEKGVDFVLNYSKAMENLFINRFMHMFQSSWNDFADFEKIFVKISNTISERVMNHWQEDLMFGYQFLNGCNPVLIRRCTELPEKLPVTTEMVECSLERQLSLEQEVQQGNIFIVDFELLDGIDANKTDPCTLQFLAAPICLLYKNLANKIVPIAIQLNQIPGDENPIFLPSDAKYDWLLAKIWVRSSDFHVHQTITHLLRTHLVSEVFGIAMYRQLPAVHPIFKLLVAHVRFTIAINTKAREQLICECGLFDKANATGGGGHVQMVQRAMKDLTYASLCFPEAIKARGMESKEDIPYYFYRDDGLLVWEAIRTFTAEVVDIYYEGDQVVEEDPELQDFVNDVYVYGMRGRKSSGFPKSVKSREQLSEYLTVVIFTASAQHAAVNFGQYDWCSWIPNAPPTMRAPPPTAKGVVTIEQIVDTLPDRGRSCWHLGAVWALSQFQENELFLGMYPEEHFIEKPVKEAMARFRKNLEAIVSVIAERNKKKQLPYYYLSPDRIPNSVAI

COX-2 [3] = target: T2, COX-2; test: COX-2 activity in intact cells; assay type: cell-based; design: A549 cells were pre-treated with 0.5-1 ng/mL of IL-1β- for 6 hours to induce COX-2 expression; endogenous in cells
Procedure: COX-2 activity in intact cells—A549 cells were pre-treated with 0.5-1 ng/mL of IL-1β- for 6 hours to induce COX-2 expression, then incubated with fresh medium containing vitamin E farms, metabolite-containing conditioned medium or control medium for 30 min. […] The enzyme reaction was initiated by addition of 5 μM AA for 5 min, and medium was collected and immediately frozen to −20 C. PGE2 generated was measured as an index of COX-2 activity using an EIA assay from Cayman Chemicals.

[4] = tested on: IL-1beta-stimulated PGE2 formation in A549 cells; test: IL-1beta-stimulated PGE2 formation with or without sesamin (Table 4); assay type: cell-based, human; settings: IL-1beta 2 ng/ml, 8 h; 13′-COOH 2.5 uM, sesamin 1 uM
Procedure: Briefly, A549 cells were stimulated with IL-1beta (2 ng/ml) in the presence of DMSO (ctrl, 0.1%), control with sesamin (1 uM), 13′-COOH (structure 1) at 2.5 uM, 13′-COOH with sesamin (1 uM). Basal control was cells incubated with medium without IL-1beta. Eight hours later, media were collected and PGE2 was measured by ELISA.

[5] = tested on: human normal CCD841CoN (CCD) colon epithelial cells; test: Normal colon epithelial cell viability (MTT); assay type: cell-based; settings: vs. cancer cells
[6] = Metabolite levels after γ-T supplementation in rats; assay type: in vivo; settings: preliminary data
Description: One important implication of our current findings is that different bioactivity among vitamin E forms may be rooted in their distinct metabolism. To this end, long-chain carboxychromanols may contribute to in vivo anti-inflammatory effect of γ-T (3-2). […] Himmelfard et al. reported that γ-T enriched but not a-T-enriched mixed tocopherol inhibited C-reactive protein and IL-6 in kidney-dialysis patients 36).

[7] = tested on: colon HCT116 cancer cells; test: HCT116 cell growth / viability (MTT); assay type: cell-based, human
Procedure: FIG. 9. MTT assay data were obtained after HCT116 colon cancer cells were incubated with curcumin (Cur, 6 μM), δTE-13′-COOH (13′, 10 μM) or their combination for 72 h. *P<0.05 and ***P<0.01 indicate statistically difference between the treatments and vehicle control.
(§2) The relative cell viability as a percentage of the control was determined for control and for each concentration.
This observation supports the idea that the combination of curcumin with 13′-COOHs may offer better anticancer efficacy than either agent alone.

[8] = tested on: sulfation of carboxychromanols; test: Sulfation of carboxychromanols; settings: preliminary data
COX-2 [9] = target: T2, COX-2; design: A549 cells were pre-treated with 0.5-1 ng/mL of IL-1β- for 6 hours to induce COX-2 expression; endogenous in cells; settings: previously reported; read-out: IC50 COX-2 in A549 cells; cited from earlier work
[10] = tested on: human breast MCF-7 cancer cells; test: MCF-7 cell growth (MTT); assay type: cell-based; settings: 5, 10, 20 μM, over 60 hours
Procedure: as §2

[11] = tested on: HCT116 colon cancer cells; test: Apoptosis by flow cytometry; assay type: cell-based, human; settings: 20 μM, 24 hours
[12] = tested on: AOM/DSS-induced colon inflammation and tumorigenesis; test: AOM/DSS-induced colon cancer model; assay type: in vivo, Balb/c mice; settings: 0.025% diet
Procedure: AOM is a carcinogen and DSS administered in drinking water causes colon inflammation that promotes colon tumorigenesis. Therefore, the AOM-DSS model represents inflammation (colitis)-promoted colon cancer. In FIG. 5A, the experimental design is shown. At day 0, AOM is administered to the Balb/c mice.

DSS-induced colitis = DSS-induced colitis model; assay type: in vivo, mice
HT29 colon cancer cells = test: HT-29 cell viability (MTT); assay type: cell-based, human
Procedure: FIG. 8. […] Relative cell viability was measured by MTT assay after cells were treated with STE-13′ at indicated concentrations and times compared with DMSO controls. […] The data are mean±SD from at least three independent experiments. *p <0.05 and **p<0.01 indicate a significant difference between treated and DMSO-control cells
Besides HT29 colon cancer cells, we also observed similar anticancer effects of δTE-13-COOH on HCT116 colon cancer cells (FIG. 4C) and MCF7 breast cancer cells (FIG. 4A).

COX-2 [13] = target: T2, COX-2; test: COX-2 inhibition with purified human enzyme (Table 3); assay type: biochemical; design: A549 cells were pre-treated with 0.5-1 ng/mL of IL-1β- for 6 hours to induce COX-2 expression; endogenous in cells; settings: mean±SEM
Description: Free radical biology & medicine 95, 190-199. Results are mean±SEM based on four or more independent experiments.

[14] = at maximum concentration of 20 μM
[15] = purified enzyme, Not inhibit: 9′ at 20 μM, acetaminophen at 250 μM
[16] = intact cells, COX-2 pre-induced by IL-1β, 5 μM AA, read-out: IC50 COX-2 in A549 cells
[17] = Table 2, read-out: IC50 COX-2 activity in intact cells
[18] = purified enzyme, Not inhibit: 9′ at 20 μM, acetaminophen at 250 μM, listed as F-CEHC

Question: Which results are given for `Cc1cc(O)cc2c1OC(C)(CCCC(C)CCCC(C)C(=O)O)CC2` (centres unmarked) [9′]?
Answer: inhibition of COX-1 (ovine COX-1; [14]): did not inhibit; IC50 COX-1 (ovine COX-1; [15]): Not inhibit*; detection in the plasma and liver [1]: not; inhibition of COX-2 (COX-2 [2]; [14]): did not inhibit; IC50 COX-2 (COX-2 [2]; [15]): Not inhibit*; estimated IC50 of 5-LOX activity (5-LOX): low microM; IC50 (COX-2 [3]; [16]): 7 ± 2 µM

Question: What does the source list for `Cc1cc(O)cc2c1OC(C)(CCCC(C)CCCC(C)CCCC(C)C(=O)O)CC2` (centres unmarked) [13′, 13-(6-hydroxy-2,8-dimethylchroman-2-yl)-2,6,10-trimethyltridecanoic acid]?
Answer: IC50 (ovine COX-1; [15]): 5 ± 2 µM; PGE2 [4]: 3.21 ± 0.9 ng/mL; sensitivity of normal cells (anti-proliferation, 24-h incubation) [5]: much less sensitive; amount found in feces [6]: > 100 nmol/g; detection in the plasma and liver [1]: significant amounts; IC50 (COX-2 [2]; [15]): 4 ± 2 µM; IC50 (COX-2 [3]; [17]): 4 ± 2 µM; IC50 (COX-2 [3]; [16]): 6 ± 2 µM

Question: For `COc1cc(/C=C/C(=O)CC(=O)/C=C/c2ccc(O)c(OC)c2)ccc1O` [curcumin, reference compound], which cytotoxicity at 6 µM ([7]; Homo sapiens, HCT-116, curcumin 6 μM, δTE-13′-COOH 10 μM or their combination, 72 h, read-out: reduction of colon cancer cell viability) is on record?
Answer: 35%

Question: And the sulfation of carboxychromanols [8]?
Answer: inhibits sulfation

Question: What does the source list for `Cc1c(O)cc2c(c1C)OC(C)(CCC(=O)O)CC2` (centres unmarked) [γ-CEHC, reference compound]?
Answer: IC50 (ovine COX-1; [15]): 300 ± 50 µM; IC50 (ovine COX-1; [18]): 300 to 500 µM; IC50 in the enzyme assay (COX-2 [2]; assays using purified COX-1 or COX-2): > 3000/1; IC50 (COX-2 [2]; [15]): 450 ± 50 µM; IC50 (COX-2 [2]; [18]): 300 to 500 µM; IC50 (COX-2 [9]): 30 to 70 µM

Question: Which “cancer cell growth (MTT)” value [10] does the source give for `C/C(=C\CC/C(C)=C/CCC1(C)CCc2cc(O)cc(C)c2O1)CC/C=C(\C)C(=O)O` (centres unmarked) [δTE-13′, (2E,6E,10E)-13-(6-hydroxy-2,8-dimethylchroman-2-yl)-2,6,10-trimethyltrideca-2,6,10-trienoic acid] here?
Answer: dose-dependently inhibits

Question: What about the “cancer cell growth (MTT)” value ([7]; 5, 10, 20 μM, over 60 hours) of the same compound?
Answer: dose-dependently inhibits

Question: What about the “reduction of colon cancer cell viability” value ([7]; curcumin 6 μM, δTE-13′-COOH 10 μM or their combination, 72 h) of the same compound?
Answer: 11-12%

Question: What about the “cells in early stage apoptosis” value [11] of the same compound?
Answer: 7.92%

Question: What about the “cells in late stage apoptosis” value [11] of the same compound?
Answer: 22.9%

Question: What about the body weight [12] of the same compound?
Answer: no effect

Question: What about the food intake [12] of the same compound?
Answer: no effect

Question: And the “decrease of total tumor multiplicity” value ([12]; P<0.01)?
Answer: 34%

Question: What about the “decrease of large polyps” value ([12]; P<0.05) of the same compound?
Answer: 58%

Question: What about the “DSS-induced inflammation (fecal bleeding)” value ([12]; second cycle of DSS) of the same compound?
Answer: significantly attenuated

Question: What about the colitis score (DSS-induced colitis; compared to the DSS-treated control) of the same compound?
Answer: significantly decreased colitis score

Question: What about the “DSS-induced diarrhea and fecal bleeding” value (DSS-induced colitis; in diet) of the same compound?
Answer: significantly mitigated

Question: And the “cancer cell growth (MTT)” value (HT29 colon cancer cells)?
Answer: dose- and time-dependent manner

Question: What about the IC50 (COX-2 [3]; [17]) of the same compound?
Answer: 4 ± 1 µM

Question: What about the IC50 (COX-2 [13]) of the same compound?
Answer: 9.8 ± 2 µM

— patent US20170296505A1, “LONG-CHAIN CARBOXYCHROMANOLS AND ANALOGS FOR USE AS ANTI-INFLAMMATORY AGENTS” (Purdue Research Foundation, priority 2008, published 2017)
